Results as given in PubChem BioAssay (NCI).
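Growth conditions: 96-well plates. Treatment: test compound, 48 hours, 5 concentrations. Analysis: linear interpolation between bracketing concentrations; unreached endpoints set to highest concentration. Definition used: TGI = concentration required for complete inhibition of growth.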

How the values were obtained:
Test in all cases: inhibition of tumour cell growth, NCI panel, 48 h
[1] = tested on: 786-0 renal
[2] = tested on: A498 renal
[3] = tested on: A549 NSCLC
[4] = tested on: ACHN renal
[5] = tested on: BT-549 breast
[6] = tested on: CAKI-1 renal
[7] = tested on: COLO 205 colon
[8] = tested on: DU-145 prostate
[9] = tested on: EKVX NSCLC
[10] = tested on: HCC-2998 colon
[11] = tested on: HCT-116 colon
[12] = tested on: HCT-15 colon
[13] = tested on: HL-60(TB) leukemia
[14] = tested on: HOP-62 NSCLC
[15] = tested on: HOP-92 NSCLC
[16] = tested on: HT29 colon
[17] = tested on: IGROV1 ovarian
[18] = tested on: K-562 leukemia
[19] = tested on: KM12 colon
[20] = tested on: LOX IMVI melanoma
[21] = tested on: M14 melanoma
[22] = tested on: MALME-3M melanoma
[23] = tested on: MCF7 breast
[24] = tested on: MDA-MB-231 breast
[25] = tested on: MDA-MB-435
[26] = tested on: MDA-N
[27] = tested on: MOLT-4 leukemia
[28] = tested on: NCI-H226 lung
[29] = tested on: NCI-H23 lung
[30] = tested on: NCI-H460 lung
[31] = tested on: NCI-H522 lung
[32] = tested on: NCI/ADR-RES ovarian
[33] = tested on: OVCAR-3 ovarian
[34] = tested on: OVCAR-4 ovarian
[35] = tested on: OVCAR-5 ovarian
[36] = tested on: OVCAR-8 ovarian
[37] = tested on: PC-3 prostate
[38] = tested on: RPMI-8226 leukemia
[39] = tested on: RXF 393 renal
[40] = tested on: SF-268 CNS
[41] = tested on: SF-295 CNS
[42] = tested on: SF-539 CNS
[43] = tested on: SK-MEL-2 melanoma
[44] = tested on: SK-MEL-28 melanoma
[45] = tested on: SK-MEL-5 melanoma
[46] = tested on: SK-OV-3 ovarian
[47] = tested on: SN12C renal
[48] = tested on: SNB-19 CNS
[49] = tested on: SNB-75 CNS
[50] = tested on: SR leukemia
[51] = tested on: SW-620 colon
[52] = tested on: T-47D breast
[53] = tested on: TK-10 renal
[54] = tested on: U251 CNS
[55] = tested on: UACC-257 melanoma
[56] = tested on: UACC-62 melanoma
[57] = tested on: UO-31 renal

Measured: TGI

O=C(/C=C/c1ccc(OCc2ccccc2)c(OCc2ccccc2)c1)OCc1ccccc1
> 100 µM: all assays above
